In patent US20010046968A1, “Opioid growth factor modulates angiogenesis” (priority 2000, published 2001):
Entries after “also recorded” stand apart in the source; their conditions may differ.

What was measured:
[1] = test system: CAM blood vessels (angiogenesis); experiment: Chorioallantoic membrane (CAM) model, drug-impregnated methylcellulose disk, image analysis of blood vessels (Example 1); assay type: in vivo, chicken; settings: for effect on angiogenesis / blood vessel growth vs control: 5 μg each per disk; for Blood Vessel Mean Length / Blood Vessel Number / Blood Vessel Length: 48 hours, mean ± SEM; for Blood Vessel Length: total length
Method: (§1) The CAM model utilized in these studies has been described by Mazo et al. (FASEB J. 13: A527, 1999). In brief, fertilized white broiler chicken eggs were obtained from a local hatchery and kept at room temperature for 48 hours. The outside of the shells were washed with soap, and placed in a 70% ethyl alcohol bath for 30 seconds. The eggs were incubated at 37° C. for three days and rotated 180 degrees three times daily. After incubation, the eggs were cleansed with an iodine solution and dried on a sterile tray. The eggs were cracked, and the embryos explanted into spherical plastic 100 mm×25 mm weigh boats. Specimens were covered with a plastic lid, placed in a humidified chamber at 37° C., and maintained for 48 to 72 hours until the CAM achieved at least a 10 mm diameter.
Methylcellulose disks were prepared as reported by Mazo et al. (FASEB J. 13: A527, 1999). […] These doses were selected on the basis of prior animal and culture studies (Zagon I. S. et al., Am. J Physiol, 270: R22-R32 (1996); McLaughlin P. J. et al., Int. J. Oncol., 14: 991-998 (1999)). An equivalent volume of distilled water was utilized as a control (n=13). Another series of experiments employed retinoic acid (RA: 1 μg) (Oikawa T. et al., Cancer Letters, 48: 157-162 (1989)) (n=12), VEGF (1 μg) (Wilting J. et al., Cell Tissue Res., 274: 163-174 (1993)) (n=10) and an equivalent volume of water (n=10) to validate the CAM model employed, and to provide an internal comparison to the potential angiogenic effects of OGF with other known angioactive agents. These methylcellulose solutions were placed on the tips of 3.2 mm diameter Teflon rods and allowed to dry at room temperature for 1 hour under a vacuum hood. The resultant dried disks were removed from the Teflon rods and placed on the outer third of the CAM. Only one disk was placed on each CAM. The eggs were returned to the incubator for an additional 48 hours of growth prior to examination by image analysis (Mazo J. E. et al., FASEB J., 13: A527 (1999)).
Image analysis was preformed as described previously (Mazo J. E. et al., FASEB J, 13: A527 (1999)). The location of the disk was located visually on the CAM. An identifying mark was placed in the center of the disk and 2 ml of a 10% intralipid solution was injected into the CAM obscuring the underlying yolk vessels and providing an opaque white background for the superficial vessels. The CAM was imaged on a three-chip digital camera (DKC 500 Sony, Tokyo, Japan), digitized, and exported to a personal computer (FIG. 1). A 100 mm^2 region was defined around the disk in which blood vessel quantitation was performed (Optimas 6.0, Mediacybernetics, Bothell, Wash.). Calibration was achieved by imaging a ruler placed adjacent to the embryo preparation.
All arteries and veins in this designated region centered on the applied disk were analyzed. From the digitized image, an overlying mask was created and all blood vessels were traced within the region in an unblinded manner by two different individuals. The total number of blood vessels were counted and their individual lengths added to obtain total blood vessel length.
Data were exported to Microsoft Excel (Excel 97, Microsoft, Redmond, Wash.). All values were expressed as the mean±standard error of the mean. Statistical analysis was performed using the SigmaStat 1.0 statistical software package (Jandel, San Rafael, Calif.). The Mann-Whitney rank sum test or the Student t test was used to compare continuous data. Either the Fischer exact test or χ^2 test were used for dichotomous data. A p value of less than 0.05 indicated statistical significance.

[2] = test system: CAM arteries and veins (angiogenesis); experiment: CAM assay with separate counting of arteries and veins (Example 2); assay type: in vivo, chick; settings: for Number of Vessels, Artery / Number of Vessels, Vein / Total Vessel Length, Artery / Total Vessel Length, Vein / Number of Vessels, A/V Ratio / Total Vessel Length, A/V Ratio: mean ± SEM
Method: The CAM assay described above was utilized. After 3 days of incubation, fertilized chick embryos were explanted and 3.2 mm methylcellulose disk containing a compound was placed onto the CAM surface. After 2 days of growth, the CAM arteries and veins were identified and imaged with a digital camera. Arteries and veins were identified based on the presence of vessel pulsation (arteries), color, and direction of blood flow within the vessels. The main artery was oriented vertically with flow originating inferiorly. A white 10% intralipid solution was injected into the CAM to enhance visualization. Total number and length of veins and arteries were counted and measured.

embryos = experiment: Embryo survival after placement of drug onto the CAM; assay type: in vivo, chicken; settings: 48 hours after placement of drug onto the CAM
Method: as §1
Methylcellulose disks were prepared as reported by Mazo et al. (FASEB J. 13: A527, 1999). […] These doses were selected on the basis of prior animal and culture studies (Zagon I. S. et al., Am. J Physiol, 270: R22-R32 (1996); McLaughlin P. J. et al., Int. J. Oncol., 14: 991-998 (1999)). An equivalent volume of distilled water was utilized as a control (n=13). […]

[3] = 1 μg per disk, another series of experiments

## O=C1CC[C@@]2(O)[C@H]3Cc4ccc(O)c5c4[C@@]2(CCN3CC2CC2)[C@H]1O5 [Naltrexone, reference compound]
[1]
  effect on angiogenesis / blood vessel growth vs control: Vessel inhibition is no longer seen
[1]; 5 μg per disk
  effect on total blood vessel length vs control: increased
  effect on total number of blood vessels vs control: increased
[1]; 5 μg per disk, listed as NTX
  effect on mean blood vessel length vs control: decreased; also recorded: marked decrease
[2]; 0.1 μg disk
  Number of Vessels, Artery: 80 ± 6
  Number of Vessels, Vein: 83 ± 4
  Total Vessel Length, Artery: 112 ± 6 mm
  Total Vessel Length, Vein: 118 ± 6 mm
[2]; 5.0 μg disk
  Number of Vessels, Artery: 203 ± 7
  Number of Vessels, Vein: 97 ± 4
  Total Vessel Length, Artery: 174 ± 4 mm
  Total Vessel Length, Vein: 105 ± 2 mm
[2]; summary of Table II
  effect on mean length of blood vessels: decreased
  effect on total number and length of blood vessels in comparison to controls: markedly increased both total number and length of all blood vessels

## CC1=C(/C=C/C(C)=C/C=C/C(C)=C/C(=O)O)C(C)(C)CCC1 [Retinoic acid, retinoic acid, reference compound]
[1]; 1 μg per disk
  decrease in number of blood vessels compared to control group: 60%
  decrease in total blood vessel length compared to control group: 33%
  increase in mean blood vessel length relative to control group: 75%
[1]; [3]
  Blood Vessel Mean Length: 2.07 ± 0.13 mm
  Blood Vessel Number: 79 ± 10
  Blood Vessel Length: 153 ± 11 mm
[2]; dose not given
  Number of Vessels, A/V Ratio: 1.5 ± 0.1
  Number of Vessels, Artery: 60 ± 5
  Number of Vessels, Vein: 39 ± 3
  Total Vessel Length, A/V Ratio: 1.3 ± 0.1
  Total Vessel Length, Artery: 83 ± 5 mm
  Total Vessel Length, Vein: 66 ± 4 mm

## C=CCN1CC[C@]23c4c5ccc(O)c4O[C@H]2C(=O)CC[C@@]3(O)[C@H]1C5 [NAL, naloxone, reference compound]
[1]
  effect on angiogenesis / blood vessel growth vs control: no effect on vessel growth

## [Met^5]-enkephalin [OGF]
[1]
  effect on angiogenesis / blood vessel growth vs control: blood vessel growth was suppressed; also recorded: marked inhibitory effect on angiogenesis
[1]; 5 μg per disk
  decrease in number of blood vessels in comparison to controls: 35%
  decrease in total blood vessel length in contrast to control: 20%
  effect on mean blood vessel length vs control: significantly increases
  effect on total blood vessel length vs control: significantly inhibited
  effect on total number of blood vessels vs control: significantly decreases
  increase in mean blood vessel length from control values: 23%
[1]; 5 μg per disk, 100 mm^2 region around disk
  Blood Vessel Number: 102 ± 11
[1]; 5 μg per disk, 100 mm^2 region
  Blood Vessel Mean Length: 1.81 ± 0.13 mm
  Blood Vessel Length: 179 ± 12 mm
[2]; 1.0 μg disk
  Number of Vessels, A/V Ratio: 1.1 ± 0.2
  Number of Vessels, Artery: 53 ± 5
  Number of Vessels, Vein: 56 ± 8
  Total Vessel Length, A/V Ratio: 1.2 ± 0.2
  Total Vessel Length, Artery: 84 ± 5 mm
  Total Vessel Length, Vein: 81 ± 11 mm
[2]; 5.0 μg disk
  Number of Vessels, A/V Ratio: 1.6 ± 0.1
  Number of Vessels, Artery: 79 ± 4
  Number of Vessels, Vein: 51 ± 2
  Total Vessel Length, A/V Ratio: 1.3 ± 0.1
  Total Vessel Length, Artery: 107 ± 4 mm
  Total Vessel Length, Vein: 82 ± 3 mm
[2]; summary of Table II
  effect on artery/vein ratios for vessel number and length: decreased artery/vein ratios
  effect on total number and length of blood vessels in comparison to controls: decreased total number and length of blood vessels
embryos
  toxicity (embryo survival): all embryos survived

## VEGF
[1]; 1 μg per disk
  decrease in mean blood vessel length in comparison to control: 33%
  effect on blood vessel growth vs control: excitatory effect on blood vessel growth
  effect on calculated mean vessel length vs control: decreased
  effect on number of blood vessels vs control: markedly increased
  effect on total length of blood vessels vs control: marked increase
  increase in total vessel length in comparison to control: 22%
  increase in vessel number in comparison to control: 83%
[1]; [3]
  Blood Vessel Mean Length: 0.79 ± 0.02 mm
  Blood Vessel Number: 358 ± 16
  Blood Vessel Length: 280 ± 7 mm
[2]; 0.2 μg disk
  Number of Vessels, A/V Ratio: 1.3 ± 0.1
  Number of Vessels, Artery: 83 ± 5
  Number of Vessels, Vein: 75 ± 11
  Total Vessel Length, A/V Ratio: 1.2 ± 0.1
  Total Vessel Length, Artery: 117 ± 3 mm
  Total Vessel Length, Vein: 109 ± 14 mm
[2]; 1.0 μg disk
  Number of Vessels, A/V Ratio: 2.2 ± 0.2
  Number of Vessels, Artery: 248 ± 13
  Number of Vessels, Vein: 120 ± 7
  Total Vessel Length, A/V Ratio: 1.5 ± 0.2
  Total Vessel Length, Artery: 173 ± 8 mm
  Total Vessel Length, Vein: 117 ± 5 mm
